Assay results published in patent publication US20250009707A1, “METHODS OF INDUCING KETOSIS IN NON-HUMAN MAMMALS” (BOPZ Nutrition Ltd., priority 2023, published 2025).

Legend:
[1] = Tolerability (emesis) in fasted canines, sublingual gavage (Example 1); format: in vivo; conditions: 250 mg/kg
Protocol: Example 1 provides a method by which compounds of the disclosure were evaluated in a first study, wherein dogs were fasted and the compounds were administered by sublingual gavage.
In a first period, a group of 12 canines (beagles) were administered 5.5% MCT in a first period, and 250 mg/kg C8-BHB in a second period. A 7 day washout period was provided between the first and second periods.
The canines were fasted, and the C8-BHB or MCTs was administered by sublingual gavage.
(§1) In each of the first, second, third, and fourth period, pathology samples were taken prior to administration of the compound, then at minute 20, 60, 90, 120, 180, 240, and 300.
Where emesis occurred before 60 minutes from dosing, serum BHB content was not analyzed.
Where emesis occurred at or after 60 minutes from dosing and before 300 minutes from dosing, Cmax was calculated but AUC was not calculated.

[2] = Tolerability in fed canines, gastric gavage (Example 2); format: in vivo
Protocol: (§2) A group of 6 beagles was evaluated per tested compound of the disclosure. In a first period, the canines were administered 250 mg/kg of C8-BHB. In a second period, the canines were administered 500 mg/kg of C8-BHB. In a third period, the canines were administered MCT at a dose of 5.5%. In a fourth period, the canines were administered 125 mg/kg of C8-BHB. A washout period of 7 days was provided between each of the first, second, third, and fourth periods.
(§3) Following the tolerability results of Example 1, the canines were fed, and the compound was administered by gastric gavage in subsequent examples.
as §1
(§4) If emesis occurred 60 minutes from administration of the compound, serum BHB content was not analyzed.

[3] = Serum/plasma BHB in fed canines, gastric gavage (Examples 2-4); format: in vivo, canines (beagles); conditions: 500 mg/kg
Protocol: Ketosis may be assessed quantitatively by measuring plasma beta-hydroxybutyrate (BHB) concentrations. Methods of measuring plasma BHB concentrations are known in the art. Non-limiting exemplary methods for measuring plasma BHB concentrations are provided in U.S. Pat. No. 10,562,839, which is hereby incorporated by reference in its entirety. Plasma BHB levels may be determined by a colorimetric enzymatic assay (Stanbio Laboratory 2440-058).
as §2, §3
In each of the first, second, third, and fourth period, serum was sampled prior to administration of the compound, then at minute 15, 30, 45, 60, 75, 90, 120, 180, 240, and 300. Serum was sampled for BHB analysis.
as §4
C8-BHB and C8×2-BD were selected as exemplary compounds of the disclosure for administration to canines according to the method of Example 2. Each exemplary compound was administered to 6 canines.
To further evaluate the potential of the compounds of the disclosure for inducing ketosis in canines, the compounds and MCTs were administered to the same canines, as described in Example 2.

Row | SMILES | Tolerability compared to MCTs (FIG. 1B) [1] | Tolerability compared to MCTs (FIGS. 2A-D) ([2]; fed canines, gastric gavage, doses of 125, 250 and 500 mg/kg) | Canines tolerating the substance ([2]; fed state, overall) [%] | BHB Cmax [3] [mM] | BHB Tmax [3] [min]
1 | CCCCCCCC(=O)O[C@H](C)CC(=O)OCC [C8-BHB, octanoyl-ethyl-3-hydroxybutyrate] | better tolerated | improved tolerability | 83 | 1.00 | 51
2 | CCCCCCCC(=O)OCC[C@@H](C)OC(=O)CCCCCCC [C8×2-BD, bis-octanoyl-1,3-butanediol] |  |  |  | 0.70 | 57
